What was measured:
[1] = test system: lung cancer cell line (A549) xenograft; assay: Cisplatin anticancer effect in tumor-induced animal model (tumor size); type: in vivo, Balb/c/nu/nu mice; conditions: intraperitoneal for 5 days, then reared for 7 days
Experimental: In order to exclude mice having congenitally abnormal hearing, a preliminary hearing test was performed on all mice before the experiment. An auditory brainstem response (ABR) test was conducted on the immunodeficient Balb/c/nu/nu mice and then a lung cancer cell line (A549) was xenografted subcutaneously into the mice to produce a tumor-induced animal model (FIG. 1). After tumor formation in the tumor-induced ototoxic hearing loss animal model of Example 1, mice were randomly classified, and then (1) physiological saline (vehicle), (2) forskolin, (3) cisplatin or (4) a combination of cisplatin and forskolin was administered intraperitoneally to the mice for 5 days, and then the mice were reared for 7 days. The average tumor volume and body weight of each group were measured every week (FIGS. 4A and 4B). In addition, the weight of each of the extracted tumor and kidney was also measured (FIG. 4E).

[2] = test system: tumor-induced ototoxic hearing loss animal model; assay: Auditory brainstem response (ABR) test in tumor-induced ototoxic hearing loss animal model; type: in vivo, Balb/c/nu/nu mice; conditions: 1 week after 2 weeks of administration, cisplatin 12 mg/kg 5 times a week, forskolin 2.5 mg/kg 6 times a week
Experimental: In order to exclude mice having congenitally abnormal hearing, a preliminary hearing test was performed on all mice before the experiment. An auditory brainstem response (ABR) test was conducted on the immunodeficient Balb/c/nu/nu mice and then a lung cancer cell line (A549) was xenografted subcutaneously into the mice to produce a tumor-induced animal model (FIG. 1).
(§1) The produced tumor-induced animal model was classified into (1) a physiological saline group (Vehicle), (2) a forskolin administration group (forskolin), (3) a cisplatin administration group (cisplatin), and (4) a cisplatin+forskolin combination administration group (cisplatin+forskolin), and each drug was administered to each group. Cisplatin was administered at 12 mg/kg 5 times a week, forskolin was administered at 2.5 mg/kg 6 times a week for a total of 2 weeks, the auditory brainstem response test was performed again 1 week after all administration was completed, and hematoxylin-eosin staining was performed for histological analysis. The auditory brainstem response (ABR) test is a method that determines the minimum stimulus level (dB) as a hearing threshold when applying tone burst sounds at 16 kHz and 32 kHz using a TDT ABR device.

auditory hair cells = assay: Histological examination of the cochlea in conventional ototoxic hearing loss animal model; type: in vivo, SD (Sprague-Dawley) rats; conditions: basal and middle turns in the cochlea; cisplatin 16 mg/kg i.p.; forskolin intratympanic; after 5 days
Experimental: In order to exclude mice having congenitally abnormal hearing, a preliminary hearing test was performed on all mice before the experiment. An auditory brainstem response (ABR) test was conducted on 7-week-old SD (Sprague-Dawley) rats and then 16 mg/kg/7 ml of a cisplatin anticancer drug was administered intraperitoneally once to induce ototoxic hearing loss (FIG. 2). Before and after cisplatin administration, forskolin was intratympanically injected (IT) into one ear once in an amount of 25 μM in 20 μL a total of two times, and physiological saline containing DMSO as a control group was injected into the other ear. After 5 days, an auditory brainstem response (ABR) test and a histological examination were performed to evaluate the effect of preventing induction of forskolin-cAMP activity against ototoxic hearing loss.

HEI-OCl cells = assay: Inhibition of cisplatin-induced apoptosis in auditory cell line (calcein AM, cleaved PARP and caspase 3); type: cell-based; conditions: cisplatin 25 μM
Experimental: An auditory cell line expressing auditory genes (HEI-OCl; House-Ear Institute-organ of Corti 1) was used, and the HEI-OCl cells were incubated in DMEM medium (Dulbecco's modified Eagle's Medium) containing a high concentration of glutamine, supplemented with 10% fetal bovine serum (FBS) and 25 U/ml of interferon gamma at 33° C. and 10% CO2. The cells were treated with cisplatin at a concentration of 25 μM, and the effects of forskolin and retinoic acid were analyzed under conditions in which about 40 to 50% of cells were killed by cisplatin ototoxicity. In order to analyze the effects of forskolin and retinoic acid on ototoxicity, experimental groups were classified into (1) normal, (2) forskolin, (3) retinoic acid, (4) cisplatin, (5) cisplatin+forskolin, (6) cisplatin+retinoic acid, (7) cisplatin+forskolin+retinoic acid. Cisplatin was administered in an amount of 25 μM, forskolin was administered in an amount of 20 μM, and retinoic acid was administered in an amount of 50 μM. Then, viable cells were observed using calcein AM, a fluorescent stain applicable to live cells, and cleaved PARP and caspase 3, as apoptosis markers, were identified at the protein level.

[3] = test system: auditory hair cells, supporting cells and spiral ganglion cells in the organ of Corti; assay: Hematoxylin-eosin staining of the cochlea in tumor-induced ototoxic hearing loss animal model; type: in vivo, Balb/c/nu/nu mice; conditions: basal and middle turns of the cochlea; forskolin given with cisplatin
Experimental: as §1, with “device. In addition, loss and damage of the auditory hair cells, supporting cells and spiral ganglion cells in the organ of Corti during the basal and middle turns of the cochlea were evaluated using hematoxylin-eosin staining.” for “device.”

In the case of `N.N.[Cl][Pt][Cl]` [cisplatin, cis-diaminedichloroplatinum (II)], the “effect of reducing a tumor size compared to the control group” value [1] is reported as “about 50%”, the “hearing threshold (ABR)” value ([2]; 16 kHz) is reported as 29 dB and the “hearing threshold (ABR)” value ([2]; 32 kHz) is reported as 31 dB. The “loss of auditory hair cells (histological examination)” value (auditory hair cells) was “loss of a number of auditory hair cells”, the “cells killed by cisplatin ototoxicity” value (HEI-OCl cells) was 40 to 50% and the “cell viability / apoptosis (calcein staining, cleaved PARP and caspase 3)” value (HEI-OCl cells; forskolin 20 μM, retinoic acid 50 μM) was “apoptosis of cisplatin-induced auditory cell lines was observed”. For the same molecule, the “loss and damage of auditory outer hair cells (hematoxylin-eosin staining)” value [3] was “a number of the auditory outer hair cells during the basal and middle turns were found to be lost”.

— US12011431B2, “Pharmaceutical composition for preventing or treating sensorineural hearing loss, containing forskolin and retinoic acid as active ingredients” (AJOU UNIVERSITY INDUSTRY-ACADEMIC COOPERATION FOUNDATION, priority 2018, dated 2024)
